Reference: publication PMC7667029, “A Targeted Computational Screen of the SWEETLEAD Database Reveals FDA-Approved Compounds with Anti-Dengue Viral Activity” (mBio, 2020)
Entries after “also recorded” stand apart in the source; their conditions may differ. Where two headings read alike, the source gives them in different places.

Legend:
DENV2 = test: Antiviral activity in DENV2-infected Huh7 cells, infectious virus in supernatant by plaque assay; type: cell-based, dengue virus
Protocol: FIG 2 Pyrimethamine inhibits dengue virus and NS2B/3 proteinase cleavage like ARDP0006. (A) Chemical structures and (B) ROCS overlay of ARDP0006 and pyrimethamine. […] Infectious virus in cell supernatant was quantified by plaque assay at 24 hpi (left y axis, black or red). Cell viability was measured at the same pyrimethamine doses 24 h posttreatment by WST-1 assay (right y axis, gray). Viral titer and cell viability were normalized to DMSO-treated samples. (D) Splenic titers of DENV2-infected AGB6 mice at 4 days postinfection. Mice were infected with 1 × 10^6 PFU DENV2 and treated twice daily with 20 mg/kg pyrimethamine (n = 9) or a vehicle control (n = 10). Data were analyzed by two-tailed unpaired t test. (E) Cleavage kinetics of NS2B/3/4A in the presence of 100 μM pyrimethamine. NS2B/3/4A protein was expressed in vitro and radiolabeled with [^35S]methionine, followed by treatment with 100 μM pyrimethamine or DMSO. Reaction samples were obtained over a 45-min time course, separated by SDS-PAGE, and the fraction of uncleaved proteinase precursor remaining was determined as described previously ([23]). Data from three replicates were fit using single-phase exponential decay functions, and P value was determined by comparing the rate constant, K, of the models using the extra sum-of-squares F test.
Dengue plaque assays were carried out on BHK-21 cells in 24-well plates. Cells were infected with 10-fold serial dilutions of virus, which were allowed to adsorb for at least 1 h at 37°C, and overlaid with standard cell culture medium plus 0.37% (w/vol) sodium bicarbonate and 0.8% (w/vol) Aquacide II (Millipore Calbiochem). After 7 days of incubation at 37°C, 5% CO2, cells were fixed with 5% (final) formaldehyde and stained with crystal violet for plaque enumeration.
Between 4 × 10^4 and 1 × 10^5 Huh7 cells per well were seeded into 24-well plates 1 day prior to infection. Compounds were diluted to 100× final concentration in DMSO and then further diluted 1:100 into appropriate cell culture. Unless otherwise indicated, tested compounds were present for 1 h pretreatment and readministered for posttreatment following infection. […] Media and drugs were removed from cells for infection at a multiplicity of infection (MOI) of 0.1 or 0.5 in 200 μl cold medium per well. After 1 h at 37°C, virus inoculum was removed by aspiration and replaced with medium plus compound or control. After 24-h total infection, infectious virus was quantified by plaque assay. Antiviral IC50 dose-response curves were fitted in GraphPad Prism 8 using the “[inhibitor] versus response, variable slope” function with a constraint “bottom > 0.” IC90 values are defined as the dose at which “y = (span × 0.1) + bottom.”

dengue virus [1] = test: Virucidal activity assay, 60-min incubation of drug with virus, plaque assay on BHK-21 cells; type: cell-based
Protocol: (§1) (A) Chemical structures and (B) ROCS overlay of ST-148 and niclosamide. […] Compound addition, viral growth, and cytotoxicity assays were performed as described in the legend to Fig. 2C. (D) Virucidal activity of compounds at the concentrations indicated was measured after 60-min incubation of drugs with virus-containing solutions at 37°C. Viral titer was quantified by plaque assay on BHK-21 cells. n = 3. Statistical significance was evaluated by one-way ANOVA with Sidak’s multiple-comparison test and indicated as follows: *, P < 0.05; **, P < 0.01; ****, P < 0.0001; ns, not significant. […] On the left, cells were pretreated for 2 h prior to infection, compounds were removed during a 1-h infection at an MOI of 0.5 PFU/cell and then readministered after removal of viral inoculum. On the right, cells were similarly infected and compounds were first introduced 4 h after starting the infection. […] (F) To test the effect of ST-148 and niclosamide on viral RNA replication, Huh7 cells were infected for 1 h at an MOI of 0.5 PFU/cell. […] Intracellular RNA was collected at the time points indicated and quantified by qRT-PCR. […] N = 4, two-way ANOVA with Dunnett’s multiple-comparison test. […] After 4 h of infection, 10 μM ST-148 or 1 μM niclosamide was added; extracellular virus was collected at 24 hpi and quantified by plaque assay.
Compounds were diluted to 100× in DMSO, then further diluted 1:100 into phosphate-buffered saline (PBS) containing dengue virus to a final volume of 200 μl and mixed. Aliquots were taken for plaque assays immediately after addition of compounds (time [T] = 0 min) or after incubation at 37°C for 60 min (T = 60 min).

Zika virus = tested on: Zika virus; design: method as in PMID 27571349; conditions: read-out: IC50, previously reported value for Zika virus; cited from earlier work
dengue virus [2] = test: Initial screening of hit compounds for anti-dengue activity in tissue culture cells (Table S1); type: cell-based; conditions: viral titer relative to vehicle, tissue culture cell lines (BHK-21 48 hpi, Fig. S1; Huh7, Fig. 2C, 3C, 4C)
Protocol: For each query molecule, the top 500 compound hits obtained from the ROCS algorithm, as ranked by the Tanimoto combo score (see Data Set S1 in the supplemental material), were manually inspected for similar chemical and structural features. They were further prioritized by factors such as a lack of known side effects, commercial availability, and the intellectual property considerations that would be needed for worldwide, inexpensive use. Fourteen candidates were tested for their effects on dengue virus growth and toxicity in BHK-21 and Huh7 cells (see Table S1 and Fig. S1 in the supplemental material).
Supplementary file : TABLE S1 Summary of hits for lead compounds ARDP0006 and ST-148 screened for anti-dengue activity in tissue culture cells. Hit compounds were tested for anti-dengue activity and cell toxicity in tissue culture cell lines. Antiviral activity is summarized as follows: −, not antiviral, with titer greater than 50% of vehicle; +, weakly antiviral, with titer between 20 and 50% of vehicle; ++, moderately antiviral, with titer between 5 and 20% of vehicle; +++, highly antiviral, with titer less than 5% of vehicle. Toxicity at these doses is represented as follows: −, nontoxic, with cell viability greater than 80% of vehicle; +, mild toxicity, with cell viability between 60 and 80% of vehicle; +++, high toxicity, with cell viability less than 60% of vehicle. Data summarized here are depicted graphically in Fig. S1 and Fig. 2C, 3C, and [4]C. The Tanimoto combo score of each hit during initial ROCS screening is indicated; higher Tanimoto combo scores are indicative of increased chemical similarity. Download Table S1, PDF file, 0.04 MB.
Supplementary file : FIG S1 Initial screening of eliminated hit compounds for anti-dengue activity in tissue culture cells. BHK-21 cells were pretreated with the compounds at the indicated concentrations for 30 min, infected with dengue virus at an MOI of 0.1 PFU/cell for 1 h, and then posttreated with compound. At 48 hpi, cellular supernatant was collected and titered by plaque assay (purple). Cell viability in uninfected cells in the presence of compounds for 48 h was measured by WST assay (gray). Both viral titer and cell viability are normalized to their relative DMSO vehicle control, N = 2. Download FIG S1, PDF file, 0.06 MB.

[3] = single dose, ref PubChem database, cited from earlier work
dengue viral RNA = test: Intracellular viral RNA quantification by qRT-PCR in infected Huh7 cells; type: cell-based, dengue virus; conditions: added 4 h postinfection at IC90 dose (5.6 μM ST-148, 0.66 μM niclosamide)
Protocol: as §1

O=C(Nc1ccc([N+](=O)[O-])cc1Cl)c1cc(Cl)ccc1O [Niclosamide, niclosamide]
Virion production at increased dose after entry (DENV2; 10 μM ST-148 or 1 μM niclosamide added after 4 h of infection, extracellular virus at 24 hpi): effective during later, postentry stages; also recorded: inhibited virion production | IC90 (DENV2; Dengue virus, Huh-7, DENV2-infected Huh7 cells, from dose-response curve fit, 24 hpi): 660 nM | IC50 (DENV2; Dengue virus, Huh-7, DENV2-infected Huh7 cells, single infectious cycle, plaque assay at 24 hpi, read-out: IC50 of viral inhibition (infectious extracellular virus)): 280 nM | Viral titer on delayed addition of compound (DENV2; IC90 dose first added 4 h after infection, Huh7, 24 hpi): eliminated the observed reduction of viral titer | Virucidal effect of the combination with ST-148 (dengue virus [1]; 1 μM niclosamide added to 0.1 μM ST-148, 1 h at 37°C): significantly increased the virucidal effect of ST-148; also recorded: augment the virucidal activity of ST-148 | Virucidal activity (viral infectivity after coincubation) (dengue virus [1]; niclosamide alone at a much higher concentration, 1 h at 37°C): significantly, albeit slightly, virucidal | IC50 (Zika virus): 280 nM | Antiviral (dengue virus [2]): +++ (highly antiviral, with titer less than 5% of vehicle) | LD50 ([3]; IP): 7.5 mg/kg | LD50 ([3]; Oral): 1000 mg/kg | Viral RNA abundance (dengue viral RNA): no difference in viral RNA abundance
